Measured values from patent US8722849B2, “Polypeptides” (Novo Nordisk A/S, priority 2011, dated 2014).
pEC50: −log10 of the molar value. ≈ marks a conversion by molar mass, not a printed value. Read-outs that look alike come from different tables or passages of the source. Starred links: 1 amine or outer side, 2 acyl side, 3 side chain; linkers in the order of their positions; H or OH if unused. Positions of bridges follow the written chain, without caps; N, C: chain ends. Residues, ends and D or L forms follow the SMILES beside them. Groups on a side chain read outwards from the residue. *: point of attachment. C20 diacid = O=C(O)CCCCCCCCCCCCCCCCCCC(=O)*; C18 diacid = O=C(O)CCCCCCCCCCCCCCCCC(=O)*; γGlu = O=C(O)[C@H](CCC(=O)[*:2])N[*:1]

Tests used:
[1] = biological target: T1, human calcitonin receptor (Homo sapiens, UniProt P30988); test: Assay (II)a functional CRE-luciferase assay, human calcitonin receptor; assay type: cell-based
T1 construct: expressed in transfected cells; host or cells: BHK570
T1 sequence (P30988 25-474): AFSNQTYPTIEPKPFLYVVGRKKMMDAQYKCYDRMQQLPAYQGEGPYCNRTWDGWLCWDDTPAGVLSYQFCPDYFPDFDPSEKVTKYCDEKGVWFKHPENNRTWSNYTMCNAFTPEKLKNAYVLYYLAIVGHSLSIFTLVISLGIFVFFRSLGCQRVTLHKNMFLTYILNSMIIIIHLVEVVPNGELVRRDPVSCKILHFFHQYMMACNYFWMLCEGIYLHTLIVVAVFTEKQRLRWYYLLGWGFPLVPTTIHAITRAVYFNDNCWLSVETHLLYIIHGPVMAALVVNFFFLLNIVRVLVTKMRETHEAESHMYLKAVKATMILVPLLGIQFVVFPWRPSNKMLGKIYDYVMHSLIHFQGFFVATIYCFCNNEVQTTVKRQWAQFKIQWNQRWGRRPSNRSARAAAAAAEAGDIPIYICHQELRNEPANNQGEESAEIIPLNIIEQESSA

[2] = biological target: T2, human amylin receptor (amylin 3(a) receptor: human calcitonin receptor + RAMP-3) (Homo sapiens, UniProt O60896+P30988); test: Assay (II)a functional CRE-luciferase assay, human amylin receptor; assay type: cell-based
T2 construct: expressed in transfected cells; host or cells: BHK570
T2 sequence (P30988 25-474): T1 sequence (P30988 25-474)
T2 sequence (O60896 24-148 partner): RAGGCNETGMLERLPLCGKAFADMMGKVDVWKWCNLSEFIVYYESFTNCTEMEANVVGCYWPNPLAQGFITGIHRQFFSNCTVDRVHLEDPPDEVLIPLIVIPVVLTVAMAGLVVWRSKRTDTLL

[3] = Assay (III) ThT fibrillation assay for physical stability; assay type: physicochemical; conditions: ThT fibrillation assay
Outline: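 Freshly prepared formulations, pH-adjusted, with 1 μM ThT; four or eight replicates incubated at 37 °C under 960 rpm orbital shaking. Fluorescence (ex 444/em 485 nm) read every 20 min; […]. Peptide concentration measured by RP-HPLC before and after the run.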

[4] = Assay (IV) determination of solubility; assay type: physicochemical
Outline: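 Solubility was profiled across pH 3.0–8.0 after 18 hours at room temperature: a ~500 nmol/ml aqueous polypeptide solution was diluted 1:1 into 100 mM glycylglycine or bistrispropane buffers. After centrifugation, HPLC gave the dissolved concentration.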

[5] = Table 11, read-out: CTa receptor human EC50
[6] = bistrispropane buffer, pH 6, pH 6.0, read-out: Solubility pH 6.0
[7] = bistrispropane buffer, pH 6.5, pH 6.5, read-out: Solubility pH 6.5
[8] = bistrispropane buffer, pH 7, pH 7.0, read-out: Solubility pH 7.0
[9] = bistrispropane buffer, pH 7.5, pH 7.5, read-out: Solubility pH 7.5
[10] = bistrispropane buffer, pH 8, pH 8.0, read-out: Solubility pH 8.0
[11] = glycylglycine buffer, pH 3, pH 3.0, read-out: Solubility pH 3.0
[12] = glycylglycine buffer, pH 4, pH 4.0, read-out: Solubility pH 4.0
[13] = glycylglycine buffer, pH 5, pH 5.0, read-out: Solubility pH 5.0
[14] = Table 7, human calcitonin (CTa) receptor
[15] = Table 2, BHK amylin 3(a)-receptor/CRE-luc cells
[16] = glycylglycine buffer, pH 4, pH 4.0, 18 hours at room temperature, Table 2, read-out: Solubility pH 4.0

pEC50 [1, 5] | pEC50 ([2]; Table 11) | ThT pH 4.0 lag time (h) [3] | solubility at 18 h [4, 6] | solubility at 18 h [4, 7] | solubility at 18 h [4, 8] | solubility at 18 h [4, 9] | solubility at 18 h [4, 10] | solubility at 18 h [4, 11] | solubility at 18 h [4, 12] | solubility at 18 h [4, 13] | pEC50 [1, 14] | pEC50 [2, 15] | solubility at 18 h ([4]; bistrispropane buffer, pH 7, pH 7.0, 18 hours at room temperature, Table 3, read-out: Solubility pH 7.0) | solubility at 18 h [4, 16] | ThT pH 4.0 lag time [3] | pEC50 ([2]; Table 6, human amylin receptor) | SMILES
10.21 | 10.35 | 0.3 h | 155 µM (≈ 717 µg/mL) | 127 µM (≈ 587 µg/mL) | 54 µM (≈ 250 µg/mL) | 157 µM (≈ 726 µg/mL) | 117 µM (≈ 541 µg/mL) | > 200 µM | > 200 µM | > 200 µM | – | – | – | – | – | – | CC[C@H](C)[C@H](NC(=O)[C@@H]1CCCN1C(=O)CNC(=O)[C@H](Cc1ccccc1)NC(=O)[C@H](CC(N)=O)NC(=O)[C@H](CC(N)=O)NC(=O)[C@H](CO)NC(=O)[C@H](CO)NC(=O)[C@H](Cc1c[nH]cn1)NC(=O)[C@@H](NC(=O)[C@H](CC(C)C)NC(=O)[C@H](Cc1ccccc1)NC(=O)[C@H](CC(N)=O)NC(=O)[C@H](C)NC(=O)[C@H](CC(C)C)NC(=O)[C@H](CCCNC(=N)N)NC(=O)[C@H](CCC(N)=O)NC(=O)[C@@H](NC(=O)[C@H](C)NC(=O)[C@@H]1CSSC[C@H](NC(=O)[C@H](CCC(=O)O)NC(=O)[C@H](CCCNC(=N)N)NC(=O)[C@H](CCC(=O)O)NC(=O)[C@H](CCC(=O)O)NC(=O)CCCCCCCCCCCCCCCCCCC(=O)O)C(=O)N[C@@H](CC(N)=O)C(=O)N[C@@H]([C@@H](C)O)C(=O)N[C@@H](C)C(=O)N[C@@H]([C@@H](C)O)C(=O)N1)[C@@H](C)O)C(C)C)C(=O)N[C@@H](CC(C)C)C(=O)N1CCC[C@H]1C(=O)N1CCC[C@H]1C(=O)N[C@H](C(=O)N[C@@H](CC(N)=O)C(=O)N[C@H](C(=O)NCC(=O)N[C@@H](CO)C(=O)N[C@@H](CC(N)=O)C(=O)N[C@H](C(=O)N1CCC[C@H]1C(N)=O)[C@@H](C)O)C(C)C)[C@@H](C)O [Example 121, N-alpha-(19-carboxynonadecanoyl)-Glu-Glu-Arg-[Glu1,Pro37]-pramlintide] ({C20 diacid}-EERECNTATCATQRLANFLVHSSNNFGPILPPTNVGSNTP-NH2; disulfide 5-10 (inferred); C-terminus assumed)
– | – | 11.3 h | > 200 µM | > 200 µM | 138 µM (≈ 614 µg/mL) | > 200 µM | > 200 µM | > 200 µM | > 200 µM | > 200 µM | 9.54 | 9.92 | 138 µM (≈ 614 µg/mL) | > 200 µM | – | – | CC[C@H](C)[C@H](NC(=O)[C@@H]1CCCN1C(=O)CNC(=O)[C@H](Cc1ccccc1)NC(=O)[C@H](CC(N)=O)NC(=O)[C@H](CC(N)=O)NC(=O)[C@H](CO)NC(=O)[C@H](CO)NC(=O)[C@H](Cc1c[nH]cn1)NC(=O)[C@H](Cc1c[nH]cn1)NC(=O)[C@H](CC(C)C)NC(=O)[C@H](Cc1ccccc1)NC(=O)[C@H](CCC(=O)O)NC(=O)[C@H](C)NC(=O)[C@H](CC(C)C)NC(=O)[C@H](CCCNC(=N)N)NC(=O)[C@H](CCC(N)=O)NC(=O)[C@@H](NC(=O)[C@H](C)NC(=O)[C@@H]1CSSC[C@H](NC(=O)[C@@H](N)CCCCNC(=O)CC[C@H](NC(=O)CCCCCCCCCCCCCCCCC(=O)O)C(=O)O)C(=O)N[C@@H](CC(N)=O)C(=O)N[C@@H]([C@@H](C)O)C(=O)N[C@@H](C)C(=O)N[C@@H]([C@@H](C)O)C(=O)N1)[C@@H](C)O)C(=O)N[C@@H](CC(C)C)C(=O)N1CCC[C@H]1C(=O)N1CCC[C@H]1C(=O)N[C@H](C(=O)N[C@@H](CC(N)=O)C(=O)N[C@H](C(=O)NCC(=O)N[C@@H](CO)C(=O)N[C@@H](Cc1c[nH]cn1)C(=O)N[C@H](C(=O)N[C@@H](Cc1ccc(O)cc1)C(N)=O)[C@@H](C)O)C(C)C)[C@@H](C)O [Example 94, N-epsilon1-[(S)-4-Carboxy-4-(17-carboxyheptadecanoylamino)butyryl]-[Glu14,His17,His35]-pramlintide] (H-K([γGlu-C18 diacid])CNTATCATQRLAEFLHHSSNNFGPILPPTNVGSHTY-NH2; disulfide 2-7 (inferred); N-terminus assumed)
– | – | 36.7 h | 188 µM (≈ 886 µg/mL) | 48 µM (≈ 226 µg/mL) | 42 µM (≈ 198 µg/mL) | 134 µM (≈ 631 µg/mL) | > 200 µM | > 200 µM | > 200 µM | > 200 µM | 9.58 | 10.20 | – | > 200 µM | 36.7 h | – | CC[C@H](C)[C@H](NC(=O)[C@@H]1CCCN1C(=O)CNC(=O)[C@H](Cc1ccccc1)NC(=O)[C@H](CC(N)=O)NC(=O)[C@H](CC(N)=O)NC(=O)[C@H](CO)NC(=O)[C@H](CO)NC(=O)[C@H](Cc1c[nH]cn1)NC(=O)[C@H](Cc1c[nH]cn1)NC(=O)[C@H](CC(C)C)NC(=O)[C@H](Cc1ccccc1)NC(=O)[C@H](CCC(=O)O)NC(=O)[C@H](C)NC(=O)[C@H](CC(C)C)NC(=O)[C@H](CCCNC(=N)N)NC(=O)[C@H](CCC(N)=O)NC(=O)[C@@H](NC(=O)[C@H](C)NC(=O)[C@@H]1CSSC[C@H](NC(=O)[C@H](Cc2c[nH]cn2)NC(=O)[C@H](Cc2c[nH]cn2)NC(=O)[C@H](Cc2c[nH]cn2)NC(=O)CC[C@H](NC(=O)CCCCCCCCCCCCCCCCC(=O)O)C(=O)O)C(=O)N[C@@H](CC(N)=O)C(=O)N[C@@H]([C@@H](C)O)C(=O)N[C@@H](C)C(=O)N[C@@H]([C@@H](C)O)C(=O)N1)[C@@H](C)O)C(=O)N[C@@H](CC(C)C)C(=O)N1CCC[C@H]1C(=O)N1CCC[C@H]1C(=O)N[C@H](C(=O)N[C@@H](CC(N)=O)C(=O)N[C@H](C(=O)NCC(=O)N[C@@H](CO)C(=O)N[C@@H](CC(N)=O)C(=O)N[C@H](C(=O)N[C@@H](Cc1ccc(O)cc1)C(N)=O)[C@@H](C)O)C(C)C)[C@@H](C)O [Example 45, N-alpha-[(S)-4-Carboxy-4-(17-carboxyheptadecanoylamino)butyryl]-His-His-[His1,Glu14,His17]-pramlintide] ({C18 diacid-γGlu}-HHHCNTATCATQRLAEFLHHSSNNFGPILPPTNVGSNTY-NH2; disulfide 4-9 (inferred); C-terminus assumed)
10.21 | – | 0.7 h | > 200 µM | > 200 µM | > 200 µM | > 200 µM | > 200 µM | > 200 µM | > 200 µM | > 200 µM | – | – | – | – | – | 10.20 | CC[C@H](C)[C@H](NC(=O)[C@@H]1CCCN1C(=O)CNC(=O)[C@H](Cc1ccccc1)NC(=O)[C@H](CC(N)=O)NC(=O)[C@H](CC(N)=O)NC(=O)[C@H](CO)NC(=O)[C@H](CO)NC(=O)[C@H](Cc1c[nH]cn1)NC(=O)[C@@H](NC(=O)[C@H](CC(C)C)NC(=O)[C@H](Cc1ccccc1)NC(=O)[C@H](CC(N)=O)NC(=O)[C@H](C)NC(=O)[C@H](CC(C)C)NC(=O)[C@H](CCCNC(=N)N)NC(=O)[C@H](CCC(N)=O)NC(=O)[C@@H](NC(=O)[C@H](C)NC(=O)[C@@H]1CSSC[C@H](NC(=O)[C@H](CCC(=O)O)NC(=O)[C@H](CCCNC(=N)N)NC(=O)[C@H](CCC(=O)O)NC(=O)CC[C@H](NC(=O)CCCCCCCCCCCCCCCCCCC(=O)O)C(=O)O)C(=O)N[C@@H](CC(N)=O)C(=O)N[C@@H]([C@@H](C)O)C(=O)N[C@@H](C)C(=O)N[C@@H]([C@@H](C)O)C(=O)N1)[C@@H](C)O)C(C)C)C(=O)N[C@@H](CC(C)C)C(=O)N1CCC[C@H]1C(=O)N1CCC[C@H]1C(=O)N[C@H](C(=O)N[C@@H](CC(N)=O)C(=O)N[C@H](C(=O)NCC(=O)N[C@@H](CO)C(=O)N[C@@H](CC(N)=O)C(=O)N[C@H](C(=O)N1CCC[C@H]1C(N)=O)[C@@H](C)O)C(C)C)[C@@H](C)O [Example 122, N-alpha-[(S)-4-Carboxy-4-(19-carboxynonadecanoylamino)butyryl]-Glu-Arg-[Glu1,Pro37]-pramlintide] ({C20 diacid-γGlu}-ERECNTATCATQRLANFLVHSSNNFGPILPPTNVGSNTP-NH2; disulfide 4-9 (inferred); C-terminus assumed)
